One data set relates to premenstrual syndrome. The data set is described as follows: treatment of women suffering from premenstrual syndrome. As to conditions: transdermal device of Example 6, five days preceding the onset of menstruation; eight women. It is filed as in vivo, human.
The next data set concerns depression. The data set is described as follows: treatment of out-patients with clinically assessed depression. It is filed as in vivo, human. As to conditions: transdermal device of Example 6, daily for four weeks; twenty out-patients in two groups. The procedure:
Transdermal delivery devices are prepared as described in Example 6. Twenty out-patients comprised of both males and females and suffering from clinically assessed depression are divided into two groups.

The conditions of data set [1]: in vivo, po; cited from earlier work.
Data set [2] has as its system psychogenic symptomatologies. As to conditions: oral; anxiety, depression, panic disorders, nicotine dependence and others; cited from earlier work.
The nature of another data set: clinical. The note with it: human, in vivo.
Data set [3] has as its system nicotine dependence / nicotine withdrawal symptoms. In words: smoking cessation: nicotine dependence and withdrawal symptoms in individuals attempting to stop smoking. It is filed as in vivo, human. As to conditions: transdermal device of Example 1, 20 cm^2, changed once a day for 21 days; five individuals. The procedure:
Transdermal delivery devices are prepared as described in Example 1.

The nature of data set [4]: examination of patch for recrystallization after 24 months storage. The format is physicochemical. The note with it: Example 2 matrix patch (polyvinylacetate, isocetyl alcohol). The procedure:
The matrix layer mixture is slot die coated onto the backing layer. To do this, the mixture is allowed to flow through a slot to form a thin coat of a desired thickness, containing approximately 20 mg/cm^2 of the mixture, which is deposited onto a layer of polyester film laminate backing layer (ScotchPak 1012, 3M Corporation, St. Paul, Minn.).
A layer of double-sided pressure-sensitive polyacrylate adhesive and a layer of silicone coated polyester release liner are laminated to the face of the matrix facing away from the backing layer to form a quadruple laminate of backing layer/buspirone loaded matrix layer/pressure-sensitiveadhesive layer/release liner (peel strip) layer. […] For use, one transdermal buspirone delivery device is removed from its packet, the release liner (peel strip) layer is removed and discarded, and the pressure-sensitive adhesive layer is applied firmly to the patient's arm.

The term Tmax denotes the time at which the peak concentration occurs. As usually defined, the AUC is concentration integrated over time. Usually Cmax stands for the peak of the concentration-time curve.

Consider `O=C1CC2(CCCC2)CC(=O)N1CCCCN1CCN(c2ncccn2)CC1` [buspirone], for which the premenstrual syndrome symptoms result with premenstrual syndrome is recorded as “decrease in their symptoms”. Moreover, the “improvement of depression versus placebo patches” value with depression is “significant improvement”. In addition, the “absorption from the gastrointestinal tract” value in data set [1] is reported as “poorly absorbed”. Also, the “clinical response of psychogenic symptomatologies” value in data set [2] was “responsive to oral buspirone”. Moreover, in “clinical” (po), the Tmax was found to be 0.8 h. For the same compound, in “clinical” (topical or ocular), the exposure (AUC) amounted to 12.7 ng·h/mL, the highest concentration (Cmax) is 0.79 ng/mL and the time to peak (Tmax) came to 16.5 h. In addition, in data set [3], the nicotine dependence entry is “decrease in nicotine dependence”; the “symptoms including drowsiness, restlessness, headache, irritability, inability to concentrate, and increased appetite” value is “decrease in symptoms”.

Turning to `O=C1c2ccccc2S(=O)(=O)N1CCCCN1CCN(c2ncccn2)CC1` [ipsapirone], in data set [4], the “recrystallization in patch on storage” value is “no recrystallization”.

Source of the values: patent publication US5633009A, “Transdermal administration of azapirones” (Sano Corporation, priority 1993, dated 1997).
